60 compounds from patent US20250214977A1, “STAT6 INHIBITORS AND USES THEREOF” (Kymera Therapeutics, Inc., priority 2024, published 2025) can be followed below.

The assay concerns Phosphorylation of STAT6 in human PBMC (CD19+ B cells). Briefly: Phosphorylated STAT6 (pSTAT6) flow cytometry assay in human PBMC, IL-4 stimulated. It counts as cell-based. Conditions: compound 1 hour, 1 ng/ml IL-4 for 15 minutes, read-out: STAT6 IL4 pSTAT6 assay in PBMC: Average IC50. As for the experimental part:
Example 2. Phosphorylated STAT6 (pSTAT6) Flow Cytometry Assay in Human PBMC
Phosphorylation of STAT6 in human PBMC was quantitatively measured using flow cytometry technology. Human PBMC were seeded in 96-well plates with a density of 0.3 to 0.5 million cells per well in 100 μl fresh media. Compounds were then added to the assay plates with a final top concentration of up to 30 μM in a 1:3 dilution series with total of 9 doses. The assay plates were incubated for 1 hour at 37° C. under 5% CO2. The cells were then stimulated with 1 ng/ml of IL-4 (R&D Systems, Cat #6507-IL) for 15 minutes, followed by fixation for 30 minutes at 4° C. Cells were spun down at 350 g for 5 minutes. The supernatant was removed and cells were washed once with FACS buffer. Cells were permeabilized with 90% MeOH/H2O for 30 minutes at 4° C., followed by one wash with FACS buffer. Non-specific binding were blocked with human Fc for 1 hour at 4 C, followed by one wash with FACS buffer. AF488 conjugated pSTAT6 antibody (BD Biosciences, Cat #612600, 1:100 dilution) and PE conjugated CD19 antibody (BD Biosciences, Cat #341103, 1:50 dilution) diluted in 100 μl FACS buffer was added to each well with overnight incubation at 4° C. Cells were then washed once with FACS buffer and resuspended in 200 μl of FACS buffer for flow cytometry to quantify pSTAT6 in CD19+ B cells. The data was analyzed by GraphPad Prism and the dose dependent pSTAT6 inhibition was fit using the four-parameter inhibitor vs. response nonlinear regression.
For orientation: Flow cytometry measures light scatter and fluorescence of single cells or particles in a stream.

Consider `CN(C)C(=O)c1cc2ccc(C3=CCCN(C(=O)C4COCC(=O)N4Cc4ccccc4)C3)cc2[nH]1` (stereo not drawn) [Example I-93], for which the IC50 lay in the range of 10 to 100 µM.
For `CN(C)C(=O)c1cc2ccc(C3=CCCN(C(=O)c4cn(C5CC5)nn4)C3)cc2[nH]1` [Example I-45] the value was 10 to 100 µM.
Consider `CN(C)C(=O)c1cc2ccc(C3=CCCN(C(=O)C(CC4CC4)N4Cc5ccccc5C4=O)C3)cc2[nH]1` (stereo not drawn) [Example I-104], for which the IC50 is over 100 µM.
As to `CC(=O)N1CCC(c2cc(C3=CCCN(C(=O)CCn4ccnn4)C3)cc3cc(C(=O)N(C)C)oc23)CC1` [Example I-190], the IC50 lay in the range of 10 to 100 µM.
Regarding `CN(C)C(=O)c1cc2cc(C3=CCCN(C(=O)Cn4cncn4)C3)ccc2o1` [Example I-315], the IC50 was over 100 µM.
In the case of `CN(C)C(=O)c1cc2cc(C3=CCCN(C(=O)CCc4cncnc4)C3)ccc2o1` [Example I-272], the IC50 was over 100 µM.
For the compound `CN(C)C(=O)c1cc2ccc(C3=CCCN(C(=O)CCc4ccn(C)n4)C3)cc2[nH]1` [Example I-10], the IC50 is over 100 µM.
Turning to `COCc1oncc1C(=O)N1CCC=C(c2ccc3cc(C(=O)N(C)C)[nH]c3c2)C1` [Example I-145], the IC50 is over 100 µM.
For `CNc1ccc(-c2cc(C3=CCCN(C(=O)CCn4ccnn4)C3)cc3[nH]c(C(=O)N(C)C)cc23)nc1` [Example I-116] the value was 0.1 to 1 µM; for `CC(Oc1ccccn1)C(=O)N1CCC=C(c2ccc3cc(C(=O)N(C)C)[nH]c3c2)C1` (stereo not drawn) [Example I-54], 10 to 100 µM; for `CN(C)C(=O)c1cc2ccc(C3=CCCN(C(=O)C45CC(C(F)(F)F)(C4)C5)C3)cc2[nH]1` [Example I-55], 10 to 100 µM.
Regarding `CN(C)C(=O)c1cc2ccc(C3=CCCN(C(=O)COc4ccc(C(=O)O)cc4)C3)cc2[nH]1` [Example I-67], the IC50 lay in the range of 10 to 100 µM.
The result for `CN(C)C(=O)c1cc2cc(C3=CCCN(C(=O)Cc4nc5ccccc5[nH]4)C3)ccc2o1` [Example I-245] reads over 100 µM.
For `CN(C)C(=O)c1cc2ccc(C3=CCCN(C(=O)CCc4nnc[nH]4)C3)cc2[nH]1` [Example I-21] the value was over 100 µM; for `CN(C)C(=O)c1cc2ccc(C3=CCCN(C(=O)CCc4ccccn4)C3)cc2[nH]1` [Example I-212], 10 to 100 µM; for `CCN[C@H](Cn1ccnn1)C(=O)N1CCC=C(c2ccc3oc(C(=O)N(C)C)cc3c2)C1` [Example I-169], over 100 µM.
In the case of `CN(C)C(=O)c1cc2cc(C3=CCCN(C(=O)CCc4nncc5ccccc45)C3)ccc2o1` [Example I-168], the IC50 is over 100 µM.
Turning to `CN(C)C(=O)c1cc2ccc(C3=CCCN(C(=O)CCc4ccccc4C#N)C3)cc2[nH]1` [Example I-64], the half-maximal inhibitory concentration (IC50) was over 100 µM.
Regarding `CN(C)C(=O)c1cc2ccc(C3=CCCN(C(=O)C4CC4F)C3)cc2[nH]1` (stereo not drawn) [Example I-26], the IC50 is over 100 µM.
For `CCNC(Cn1ccnn1)C(=O)N1CCC=C(c2ccc3oc(C(=O)N(C)C)cc3c2)C1` (stereo not drawn) [Example I-153], the IC50 is over 100 µM.
For the compound `COC(=O)C1CCC(c2ccc3oc(C(=O)N(C)C)cc3c2)CN1C(=O)CCn1ccnn1` (stereo not drawn) [Example I-150], the IC50 was over 100 µM.
Turning to `CN(C)C(=O)c1cc2cc(C3=CCCN(C(=O)CCc4ccc5c(c4)OCCO5)C3)ccc2o1` [Example I-280], the IC50 is over 100 µM.
On to `CN(C)C(=O)c1cc2ccc(C3=CCCN(C(=O)CN4CCOC4=O)C3)cc2[nH]1` [Example I-42], for which the IC50 was 10 to 100 µM.
Regarding `CN(C)C(=O)c1cc2cc(C3=CCCN(C(=O)CCc4cnccn4)C3)ccc2o1` [Example I-216], the IC50 is over 100 µM.
For `CN(C)C(=O)c1cc2ccc(C3=CCCN(C(=O)c4cnn(C)c4C(F)(F)F)C3)cc2[nH]1` [Example I-62] the value was 10 to 100 µM; for `CN(C)C(=O)c1cc2cc(C3=CCCN(C(=O)CCc4nc5ccccc5[nH]4)C3)ccc2o1` [Example I-267], over 100 µM.
For `CN(C)C(=O)c1cc2cc(C3=CCCN(C(=O)CCc4nncs4)C3)ccc2o1` [Example I-147], the IC50 was over 100 µM.
The result for `CC(=O)N1CCc2ccccc2[C@@H]1C(=O)N1CCC=C(c2ccc3oc(C(=O)N(C)C)cc3c2)C1` (single isomer, unassigned) [Example I-177] reads over 100 µM.
Turning to `Cc1cnnn1CCC(=O)N1CCC=C(c2ccc3cc(C(=O)N(C)C)[nH]c3c2)C1` [Example I-12], the concentration for half-maximal inhibition (IC50) was in the range of 10 to 100 µM.
`CN(C)C(=O)c1cc2ccc(C3=CCCN(C(=O)CCc4cccc(C#N)c4)C3)cc2[nH]1` [Example I-63]: the 50% inhibitory concentration (IC50) is over 100 µM.
For the compound `CN(C)C(=O)c1cc2ccc(C3=CCCN(C(=O)CCCn4ncc5nc(Cl)ccc54)C3)cc2[nH]1` [Example I-90], the IC50 was 10 to 100 µM.
As for `CN(C)C(=O)c1cc2cc(C3=CCCN(C(=O)CCc4ccccc4)C3)ccc2o1` [Example I-312], the IC50 is over 100 µM.
Regarding `CN(C)C(=O)c1cc2ccc(C3=CCCN(C(=O)[C@@H](Cn4ccnn4)c4cccc(O)c4)C3)cc2[nH]1` [Example I-122], the IC50 was over 100 µM.
As to `CN(C)C(=O)c1cc2cc(C3=CCCN(C(=O)CCn4cnc5ccccc54)C3)ccc2o1` [Example I-265], the IC50 is over 100 µM.
Regarding `CN(C)C(=O)c1cc2cc(C3=CCCN(C(=O)Cn4nnc5ccccc54)C3)ccc2o1` [Example I-254], the IC50 is over 100 µM.
For `CN(C)C(=O)c1cc2ccc(C3=CCCN(C(=O)C4(O)CCN(Cc5ccccc5)CC4)C3)cc2[nH]1` [Example I-98] the value was 10 to 100 µM; for `CNc1ccc(-c2cc(C3=CCCN(C(=O)CCn4ccnn4)C3)cc3[nH]c(C(=O)N(C)C)cc23)c(Cl)c1` [Example I-118], under 0.1 µM; for `CN(C)C(=O)c1cc2cc(C3=CCCN(C(=O)Cc4ccc5c(c4)OCCO5)C3)ccc2o1` [Example I-306], over 100 µM.
For `CN(C)C(=O)c1cc2cc(C3=CCCN(C(=O)CN4CCc5ccccc5C4)C3)ccc2o1` [Example I-296], the IC50 was over 100 µM.
As to `O=C(CCn1ccnn1)N1CCC=C(c2ccc3cc(C(=O)N4CCCCC4)[nH]c3c2)C1` [Example I-123], the IC50 was 10 to 100 µM.
For `CN(C)C(=O)c1cc2ccc(C3=CCCN(C(=O)CC(C)(C)NCc4ccccc4)C3)cc2[nH]1` [Example I-135] the value was over 100 µM; for `CN(C)C(=O)c1cc2ccc(C3=CCCN(C(=O)c4ccc5c(c4)OCC(=O)N5)C3)cc2[nH]1` [Example I-132], over 100 µM.
In the case of `CC(=O)N1CCN(c2cc(C3=CCCN(C(=O)CCn4ccnn4)C3)cc3cc(C(=O)N(C)C)oc23)CC1` [Example I-207], the IC50 is over 100 µM.
Turning to `CN(C)C(=O)c1cc2ccc(C3=CCCN(C(=O)c4c(F)cccc4C(=O)O)C3)cc2[nH]1` [Example I-61], the IC50 was over 100 µM.
For the compound `Cc1cccc(-c2ncccc2C(=O)N2CCC=C(c3ccc4cc(C(=O)N(C)C)[nH]c4c3)C2)c1` [Example I-86], the IC50 was over 100 µM.
The result for `CN(C)C(=O)c1cc2ccc(C3=CCCN(C(=O)[C@@H]4CCCN4C(=O)c4ccc(F)cc4)C3)cc2[nH]1` [Example I-99] reads over 100 µM.
Turning to `CN(C)C(=O)c1cc2cc(C3=CCCN(C(=O)CCc4ncns4)C3)ccc2o1` [Example I-165], the IC50 is over 100 µM.
As to `Cc1c(S(C)(=O)=O)ccc(C(=O)N2CCC=C(c3ccc4cc(C(=O)N(C)C)[nH]c4c3)C2)c1Cl` [Example I-138], the IC50 is over 100 µM.
For `CN(C)C(=O)c1cc2ccc(C3=CCCN(C(=O)c4n[nH]cc4I)C3)cc2[nH]1` [Example I-33] the value was 10 to 100 µM; for `CN(C)C(=O)c1cc2ccc(C3=CCCN(C(=O)OCn4ccnn4)C3)cc2[nH]1` [Example I-120], over 100 µM.
`CN(C)C(=O)c1cc2ccc(C3=CCCN(C(=O)C4CCCS4(=O)=O)C3)cc2[nH]1` (stereo not drawn) [Example I-40]: the IC50 lay in the range of 10 to 100 µM.
On to `CN(C)C(=O)c1cc2cc(C3=CCCN(C(=O)CCn4ccnn4)C3)cc(CN3CCNCC3)c2o1` [Example I-167], for which the IC50 was over 100 µM.
On to `CN(C)C(=O)c1cc2ccc(C3=CCCN(C(=O)Cc4cccnc4O)C3)cc2[nH]1` [Example I-257], for which the half-inhibitory concentration (IC50) was over 100 µM.
Regarding `O=C(CCn1ccnn1)N1CCC=C(c2ccc3occc3c2)C1` [Example I-278], the IC50 is over 100 µM.
In the case of `CN(C)C(=O)c1cc2ccc(C3=CCCN(C(=O)CCn4ncc5cc(Cl)ncc54)C3)cc2[nH]1` [Example I-80], the half-maximal inhibitory concentration (IC50) was over 100 µM.
On to `CN(C)C(=O)c1cc2cc(C3=CCCN(C(=O)Cn4ccc5ccccc54)C3)ccc2o1` [Example I-274], for which the IC50 was over 100 µM.
With `CN(C)C(=O)c1cc2c(F)c(C3=CCCN(C(=O)CCn4ccnn4)C3)ccc2o1` [Example I-323], the IC50 fell in the range of 0.1 to 1 µM.
`CNc1ccc(-c2cc(C3=CCCN(C(=O)CCn4ccnn4)C3)cc3[nH]c(C(=O)N(C)C)cc23)c(OC)c1` [Example I-117]: the IC50 was under 0.1 µM.
Consider `CN(C)C(=O)c1cc2cc(C3=CCCN(C(=O)Cc4ccccn4)C3)ccc2o1` [Example I-263], for which the IC50 is over 100 µM.
Take `CN(C)C(=O)c1cc2ccc(C3=CCCN(C(=O)C4CC4c4ccn(C)n4)C3)cc2[nH]1` (stereo not drawn) [Example I-321]: the half-maximal inhibitory concentration (IC50) is 10 to 100 µM.

What is called IC50 is the concentration that gives 50% inhibition.
